Results taken from patent publication US8722868B2, “Glycosyltransferase, novel glycosyltransferase gene, and novel sugar donor compound” (National University Corporation Tokyo University of …, priority 2009, dated 2014).

Assays:
[1] = biological target: T1, delphinium-derived glycosyltransferase (SEQ ID NO: 3), recombinant (Delphinium grandiflorum, UniProt E3W9M3); assay: Glycosyl transfer reaction with delphinium-derived glycosyltransferase gene expressed in Escherichia coli; assay type: biochemical, delphinium (Delphinium grandiflorum L.); settings: recombinant enzyme from E. coli, cyanidin 3-O-β-glucoside as sugar receptor
T1 construct: made in house; host or cells: Escherichia coli JM109 (crude lysate supernatant)
T1 sequence (E3W9M3 29-505 limits assumed): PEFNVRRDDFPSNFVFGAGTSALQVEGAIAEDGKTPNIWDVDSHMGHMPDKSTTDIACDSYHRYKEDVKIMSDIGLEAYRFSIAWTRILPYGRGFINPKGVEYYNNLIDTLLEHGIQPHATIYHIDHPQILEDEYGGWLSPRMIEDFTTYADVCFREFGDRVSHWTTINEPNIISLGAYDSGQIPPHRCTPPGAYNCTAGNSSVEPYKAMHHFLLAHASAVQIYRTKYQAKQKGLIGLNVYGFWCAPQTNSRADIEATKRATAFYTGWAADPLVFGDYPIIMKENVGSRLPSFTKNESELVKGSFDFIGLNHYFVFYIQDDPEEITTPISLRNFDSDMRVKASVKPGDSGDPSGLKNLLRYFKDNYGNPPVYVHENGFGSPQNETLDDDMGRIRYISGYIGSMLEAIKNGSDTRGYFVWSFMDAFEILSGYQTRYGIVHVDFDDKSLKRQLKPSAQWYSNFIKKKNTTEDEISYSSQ
Method: PCR was performed using a sense primer (“ATGCCCGAATTTAATGTCAG” (SEQ ID NO: 19)) designed so as to add a methionine residue for the initiation of translation to a sequence from which 28 amino acid residues at the N-terminus predicted as corresponding to vacuolar transfer signals of DgVA7GT had been removed and an antisense primer (“CTG TGA AGA GTA CGA TAT C” (SEQ ID NO: 20)) designed so as to lack a stop codon. The PCR product was ligated to a pTrcHis2-TOPO vector (Invitrogen) using a pTrcHis2-TOPO TA expression Kit (Invitrogen), followed by transformation of the Escherichia coli JM109 strain. DNA was extracted from the transformed Escherichia coli and the DNA nucleotide sequence was analyzed in the above manner. Accordingly, the direction of cDNA introduction and the nonoccurrence of a PCR-induced nucleotide substitution were confirmed.
The transformed Escherichia coli was seeded on an LB medium containing […] ampicillin (5 ml), followed by shake culture at 30° C. for 4 hours. Then, IPTG was added thereto to result in 1 mM, followed by shake culture at 16° C. for 2 hours. The cultured Escherichia coli was harvested via centrifugation at 1,800×g. The medium was removed therefrom. A 0.1 M citric acid buffer (pH 5.6) (150 μl) was added thereto, followed by sufficient mixing. […]

[2] = biological target: T2, glycosyltransferase in crude enzyme extracted from petals of a delphinium (variety: "marine blue") (Delphinium grandiflorum, UniProt E3W9M3); assay: Detection of glycosyl transfer reaction with delphinium petal crude enzyme (HPLC); assay type: biochemical, delphinium (Delphinium grandiflorum L.); settings: cyanidin 3-O-β-glucoside 200 μM, sugar donor 1 mM, pH 5.6, 30° C., 15 minutes
T2 construct: Glycosyltransferase activity was examined using a crude enzyme extracted from; from tissue
T2 sequence (E3W9M3 26-505): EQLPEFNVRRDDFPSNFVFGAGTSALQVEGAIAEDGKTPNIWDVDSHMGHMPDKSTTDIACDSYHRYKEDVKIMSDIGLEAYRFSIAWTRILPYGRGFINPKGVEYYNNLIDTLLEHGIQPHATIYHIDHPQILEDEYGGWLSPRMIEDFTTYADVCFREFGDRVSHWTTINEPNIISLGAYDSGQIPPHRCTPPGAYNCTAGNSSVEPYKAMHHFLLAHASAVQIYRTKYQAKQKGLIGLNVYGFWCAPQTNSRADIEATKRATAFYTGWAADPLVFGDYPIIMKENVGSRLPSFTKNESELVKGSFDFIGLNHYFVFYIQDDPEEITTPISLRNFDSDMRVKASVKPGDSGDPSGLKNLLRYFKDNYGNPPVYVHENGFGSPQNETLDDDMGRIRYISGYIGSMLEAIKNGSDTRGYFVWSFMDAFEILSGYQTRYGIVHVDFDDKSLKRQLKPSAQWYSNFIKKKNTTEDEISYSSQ
Method: Glycosyltransferase activity was examined using a crude enzyme extracted from pink petals of a carnation (variety: “Beam Cherry”) or petals of a delphinium (variety: “marine blue”) in the manner described in Example 1. Cyanidin 3-O-β-glucoside (final concentration: 200 μM) and 1-O-β-p-hydroxybenzoyl glucose (final concentration: 1 mM) were used as a receptor and a sugar donor, respectively. The pH was adjusted to 5.6 with a citric acid buffer, followed by a glycosyltransferase reaction at 30° C. for 15 minutes. The reaction was terminated with phosphoric acid (final concentration: 1%), followed by centrifugation for the removal of insoluble matter. Then, the supernatant was analyzed by HPLC. HPLC analysis was carried out using a 1.5% phosphoric acid aqueous solution and methanol as eluents and a Wakopak Handy ODS column (4.6×250 mm, Wako Pure Chemical Industries, Ltd.). Separation was carried out at a flow rate of 1 ml/min with a linear gradient of 20% to 55% methanol (20 minutes). A reaction product was confirmed using a photodiode array detector.

| Structure (SMILES) | Sugar donor function with recombinant delphinium-derived glycosyltransferase (reaction product) [1] | Recognition as sugar donor by delphinium glycosylation enzyme [2] |
| --- | --- | --- |
| O=C(OC1OC(CO)C(O)C(O)C1O)c1ccc(O)cc1 (stereo not drawn) [1-O-β-p-hydroxybenzoyl glucose] | cyanidin 3,7-diglucoside formed as a result of transfer of glucose to a hydroxyl group at the 7 position of cyanidin 3-glucoside | recognize 1-O-β-p-hydroxybenzoyl glucose as a sugar donor |
| COc1cc(C(=O)OC2OC(CO)C(O)C(O)C2O)ccc1O (stereo not drawn) | capable of transferring glucose to the 7 position of the anthocyanin skeleton using vanillyl glucose as a sugar donor |  |
